According to PubChem BioAssay AID248 (DTP/NCI, 2004):
Inconclusive results and toxic doses are left out. No stated cut-off is given here; in the data, active means T/C of 150% or more; inactive means T/C below 125%.

Test system: L1210 leukemia ip in BDF1 mice, survival T/C
Test: NCI In Vivo Anticancer Drug Screen. Data for tumor model L1210 Leukemia (intraperitoneal) in B6D2F1 (BDF1) mice
Settings: endpoint: mean survival time, higher = longer survival
Procedure, shortened: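 Survival endpoint. Drug-treated group vs vehicle group, expressed as T divided by C. Tumor passaged by transplantation.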

Measured: T/C

O=C(COc1ccc(Cl)cc1Cl)Nc1cccnc1
inactive: dose: 100.0 mg/kg/injection, schedule: Q01DX001 (ip), vehicle: Klucel (hydroxypropylcellulose) (HPC) 93 % of control | dose: 100.0 mg/kg/injection, schedule: Q04DX003 (ip), vehicle: saline with Tween-80 94 % of control | dose: 200.0 mg/kg/injection, schedule: Q01DX001 (ip), vehicle: Klucel (hydroxypropylcellulose) (HPC) 89 % of control | dose: 200.0 mg/kg/injection, schedule: Q04DX003 (ip), vehicle: saline with Tween-80 94 % of control | dose: 400.0 mg/kg/injection, schedule: Q01DX001 (ip), vehicle: Klucel (hydroxypropylcellulose) (HPC) 96 % of control

COC(=O)c1ccccc1C(=O)OCC(C)(C)[N+](=O)[O-]
inactive: dose: 100.0 mg/kg/injection, schedule: Q04DX003 (ip), vehicle: Klucel (hydroxypropylcellulose) (HPC) 100 % of control | dose: 200.0 mg/kg/injection, schedule: Q04DX003 (ip), vehicle: Klucel (hydroxypropylcellulose) (HPC) 97 % of control | dose: 400.0 mg/kg/injection, schedule: Q04DX003 (ip), vehicle: Klucel (hydroxypropylcellulose) (HPC) 107 % of control
